According to ChEMBL document CHEMBL1201861, “Genomics of Drug Sensitity in Cancer screening data, Wellcome Trust Sanger Institute”:

Key:
[1] = system: SNG-M; assay: cells; assay type: functional, cell-based; conditions: Homo sapiens
Description: SANGER: Inhibition of human SNG-M cell growth in a cell viability assay.

[2] = system: HCC1599; assay: cells; assay type: functional, cell-based; conditions: Homo sapiens;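 further: growth inhibition of HCC1599 cells, read out in a cell viability assay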
Description: SANGER: Inhibition of human HCC1599 cell growth in a cell viability assay.

[3] = system: Calu-1; assay: SANGER: Inhibition of human Calu-1 cell growth in a cell viability assay.; assay type: functional, cell-based
[4] = system: MES-SA; assay: cells; assay type: functional, cell-based, Homo sapiens; conditions: Homo sapiens, MES-SA;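 further: growth inhibition of human MES-SA cells, read out with a cell viability assay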
Description: SANGER: Inhibition of human MES-SA cell growth in a cell viability assay.

[5] = system: HuO9; assay: cells; assay type: functional, cell-based, Homo sapiens; conditions: Homo sapiens, HuO9;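 further: growth inhibition of HuO9 cells, read out with a cell viability assay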
Description: SANGER: Inhibition of human HuO9 cell growth in a cell viability assay.

[6] = system: DV-90; assay: cells; assay type: functional, cell-based; conditions: Homo sapiens;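 further: Read-out is a viability assay, with IC50 reflecting the drop in DV-90 cell growth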
Description: SANGER: Inhibition of human DV-90 cell growth in a cell viability assay.

[7] = system: THP-1; assay: cells; assay type: functional, cell-based; conditions: Homo sapiens;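 further: growth inhibition of THP-1 cells, read out via a cell viability assay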
Description: SANGER: Inhibition of human THP-1 cell growth in a cell viability assay.

[8] = system: DG-75; assay: cells; assay type: functional, cell-based; conditions: Homo sapiens;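 further: growth inhibition of DG-75 cells, read out with a cell viability assay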
Description: SANGER: Inhibition of human DG-75 cell growth in a cell viability assay.

[9] = system: MFE-296; assay: SANGER: Inhibition of human MFE-296 cell growth in a cell viability assay.; assay type: functional, cell-based
[10] = system: TT; assay: cells; assay type: functional, cell-based; conditions: Homo sapiens
Description: SANGER: Inhibition of human TT cell growth in a cell viability assay.

[11] = system: IPC-298; assay: SANGER: Inhibition of human IPC-298 cell growth in a cell viability assay.; assay type: functional, cell-based
[12] = system: SU-DHL-1; assay: SANGER: Inhibition of human SU-DHL-1 cell growth in a cell viability assay.; assay type: functional, cell-based
[13] = system: COR-L279; assay: SANGER: Inhibition of human COR-L279 cell growth in a cell viability assay.; assay type: functional, cell-based
[14] = system: NCI-H1734; assay: cells; assay type: functional, cell-based; conditions: Homo sapiens;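 further: growth inhibition of human NCI-H1734 cells, read out with a cell viability assay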
Description: SANGER: Inhibition of human NCI-H1734 cell growth in a cell viability assay.

[15] = system: HCC1143; assay: cells; assay type: functional, cell-based; conditions: Homo sapiens;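 further: growth inhibition of human HCC1143 cells, read out with a cell viability assay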
Description: SANGER: Inhibition of human HCC1143 cell growth in a cell viability assay.

[16] = system: EHEB; assay: cells; assay type: functional, cell-based; conditions: Homo sapiens;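 further: growth inhibition of human EHEB cells, read out with a cell viability assay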
Description: SANGER: Inhibition of human EHEB cell growth in a cell viability assay.

[17] = system: CCF-STTG1; assay: cells; assay type: functional, cell-based; conditions: Homo sapiens;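 further: growth inhibition of human CCF-STTG1 cells, determined with a cell viability read-out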
Description: SANGER: Inhibition of human CCF-STTG1 cell growth in a cell viability assay.

[18] = system: SK-CO-1; assay: cells; assay type: functional, cell-based; conditions: Homo sapiens;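 further: growth inhibition of SK-CO-1 cells, determined by a viability readout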
Description: SANGER: Inhibition of human SK-CO-1 cell growth in a cell viability assay.

[19] = system: NCI-H187; assay: cells; assay type: functional, cell-based; conditions: Homo sapiens;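 further: growth inhibition of NCI-H187 cells, read out as cell viability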
Description: SANGER: Inhibition of human NCI-H187 cell growth in a cell viability assay.

[20] = system: CPC-N; assay: cells; assay type: functional, cell-based; conditions: Homo sapiens;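 further: growth inhibition of CPC-N cells, with a cell viability assay as the readout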
Description: SANGER: Inhibition of human CPC-N cell growth in a cell viability assay.

[21] = system: MDA-MB-134-VI; assay: cells; assay type: functional, cell-based; conditions: Homo sapiens
Description: SANGER: Inhibition of human MDA-MB-134-VI cell growth in a cell viability assay.

[22] = system: LU-165; assay: cells; assay type: functional, cell-based; conditions: Homo sapiens
Description: SANGER: Inhibition of human LU-165 cell growth in a cell viability assay.

[23] = system: EFE-184; assay: cells; assay type: functional, cell-based; conditions: Homo sapiens
Description: SANGER: Inhibition of human EFE-184 cell growth in a cell viability assay.

[24] = system: OPM-2; assay: cells; assay type: functional, cell-based; conditions: Homo sapiens;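 further: growth of OPM-2 cells measured with a viability assay, IC50 for suppression of proliferation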
Description: SANGER: Inhibition of human OPM-2 cell growth in a cell viability assay.

[25] = system: SNU-475; assay: cells; assay type: functional, cell-based; conditions: Homo sapiens
Description: SANGER: Inhibition of human SNU-475 cell growth in a cell viability assay.

[26] = system: TUR; assay: cells; assay type: functional, cell-based; conditions: Homo sapiens;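 further: growth inhibition of human TUR cells, read out with a cell viability assay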
Description: SANGER: Inhibition of human TUR cell growth in a cell viability assay.

[27] = system: JIYOYE; assay: cells; assay type: functional, cell-based; conditions: Homo sapiens
Description: SANGER: Inhibition of human JiyoyeP-2003 cell growth in a cell viability assay.

[28] = system: C-4-II; assay: SANGER: Inhibition of human C-4-II cell growth in a cell viability assay.; assay type: functional, cell-based
[29] = system: LOUCY; assay: cells; assay type: functional, cell-based; conditions: Homo sapiens;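 further: growth inhibition of human LOUCY cells, read out with a cell viability assay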
Description: SANGER: Inhibition of human LOUCY cell growth in a cell viability assay.

[30] = system: NCI-H1618; assay: cells; assay type: functional, cell-based; conditions: Homo sapiens;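 further: growth inhibition of human NCI-H1618 cells, measured by a cell viability assay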
Description: SANGER: Inhibition of human NCI-H1618 cell growth in a cell viability assay.

[31] = system: MDA-MB-468; assay: cells; assay type: functional, cell-based; conditions: Homo sapiens
Description: SANGER: Inhibition of human MDA-MB-468 cell growth in a cell viability assay.

[32] = system: NCI-H716; assay: cells; assay type: functional, cell-based; conditions: Homo sapiens;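 further: growth inhibition of human NCI-H716 cells, measured by a cell viability assay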
Description: SANGER: Inhibition of human NCI-H716 cell growth in a cell viability assay.

[33] = system: NCI-H322M; assay: cells; assay type: functional, cell-based; conditions: Homo sapiens;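 further: cell viability assay measuring inhibition of growth of human NCI-H322M cells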
Description: SANGER: Inhibition of human NCI-H322M cell growth in a cell viability assay.

[34] = system: YT; assay: cells; assay type: functional, cell-based; conditions: Homo sapiens
Description: SANGER: Inhibition of human YT cell growth in a cell viability assay.

[35] = system: MEL-JUSO; assay: cells; assay type: functional, cell-based, Homo sapiens; conditions: Homo sapiens, MEL-JUSO;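 further: growth inhibition of human MEL-JUSO cells, read out with a cell viability assay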
Description: SANGER: Inhibition of human MEL-JUSO cell growth in a cell viability assay.

[36] = system: RT-4; assay: SANGER: Inhibition of human RT4 cell growth in a cell viability assay.; assay type: functional, cell-based; conditions: Homo sapiens, RT-4
[37] = system: 23132-87; assay: cells; assay type: functional, cell-based, Homo sapiens; conditions: Homo sapiens
Description: SANGER: Inhibition of human 23132-87 cell growth in a cell viability assay.

[38] = system: EW-7; assay: SANGER: Inhibition of human EW-7 cell growth in a cell viability assay.; assay type: functional, cell-based; conditions: Homo sapiens, EW-7
[39] = system: HCT-15; assay: cells; assay type: functional, cell-based, Homo sapiens; conditions: Homo sapiens, HCT-15;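 further: cell viability readout, IC50 reflecting suppression of HCT-15 cell growth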
Description: SANGER: Inhibition of human HCT-15 cell growth in a cell viability assay.

[40] = system: NCI-H2227; assay: cells; assay type: functional, cell-based; conditions: Homo sapiens;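 further: growth inhibition of the human cell line, read out with a cell viability assay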
Description: SANGER: Inhibition of human NCI-H2227 cell growth in a cell viability assay.

[41] = system: ECC12; assay: cells; assay type: functional, cell-based; conditions: Homo sapiens
Description: SANGER: Inhibition of human ECC12 cell growth in a cell viability assay.

[42] = system: GDM-1; assay: cells; assay type: functional, cell-based; conditions: Homo sapiens;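 further: cell viability readout used to measure growth inhibition of human GDM-1 cells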
Description: SANGER: Inhibition of human GDM-1 cell growth in a cell viability assay.

[43] = system: IM-9; assay: SANGER: Inhibition of human IM-9 cell growth in a cell viability assay.; assay type: functional, cell-based
[44] = system: DMS-53; assay: cells; assay type: functional, cell-based, Homo sapiens; conditions: Homo sapiens, DMS-53;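 further: cell viability assay measuring growth inhibition of human DMS-53 cells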
Description: SANGER: Inhibition of human DMS-53 cell growth in a cell viability assay.

CN(c1ncccc1CNc1nc(Nc2ccc3c(c2)CC(=O)N3)ncc1C(F)(F)F)S(C)(=O)=O [PF-00562271]
IC50 [1]: > 2560 nM
IC50 [2]: > 2560 nM
IC50 [3]: > 2560 nM
IC50 [4]: 1310 nM
IC50 [5]: > 2560 nM
IC50 [6]: > 2560 nM
IC50 [7]: > 2560 nM
IC50 [8]: > 2560 nM
IC50 [9]: 2480 nM
IC50 [10]: > 2560 nM
IC50 [11]: > 2560 nM
IC50 [12]: > 2560 nM
IC50 [13]: > 2560 nM
IC50 [14]: > 2560 nM
IC50 [15]: > 2560 nM
IC50 [16]: > 2560 nM
IC50 [17]: > 2560 nM
IC50 [18]: > 2560 nM
IC50 [19]: > 2560 nM
IC50 [20]: > 2560 nM
IC50 [21]: > 2560 nM
IC50 [22]: > 2560 nM
IC50 [23]: > 2560 nM
IC50 [24]: > 2560 nM
IC50 [25]: > 2560 nM
IC50 [26]: > 2560 nM
IC50 [27]: > 2560 nM
IC50 [28]: > 2560 nM
IC50 [29]: 2260 nM
IC50 [30]: > 2560 nM
IC50 [31]: 1910 nM
IC50 [32]: > 2560 nM
IC50 [33]: > 2560 nM
IC50 [34]: > 2560 nM
IC50 [35]: 1730 nM
IC50 [36]: > 2560 nM
IC50 [37]: > 2560 nM
IC50 [38]: > 2560 nM
IC50 [39]: > 2560 nM
IC50 [40]: > 2560 nM
IC50 [41]: > 2560 nM
IC50 [42]: > 2560 nM
IC50 [43]: > 2560 nM
IC50 [44]: > 2560 nM

CCC1=C[C@@H]2CN(C1)Cc1c([nH]c3ccccc13)[C@@](C(=O)OC)(c1cc3c(cc1OC)N(C)[C@H]1[C@@](O)(C(=O)OC)[C@H](OC(C)=O)[C@]4(CC)C=CCN5CC[C@]31[C@@H]54)C2 [VINORELBINE]
IC50 [1]: 3.88 nM
IC50 [2]: 10.6 nM
IC50 [3]: > 64 nM
IC50 [4]: 3.11 nM
IC50 [5]: 7.09 nM
IC50 [6]: 34.5 nM
IC50 [7]: > 64 nM
IC50 [8]: > 64 nM
IC50 [9]: 5.99 nM
IC50 [10]: > 64 nM
IC50 [11]: 36.6 nM
IC50 [12]: 9.45 nM
IC50 [13]: > 64 nM
IC50 [14]: 14.1 nM
IC50 [15]: > 64 nM
IC50 [16]: > 64 nM
IC50 [17]: 8.37 nM
IC50 [18]: 8.5 nM
IC50 [19]: 14 nM
IC50 [20]: > 64 nM
IC50 [21]: > 64 nM
IC50 [22]: > 64 nM
IC50 [23]: > 64 nM
IC50 [24]: 6.27 nM
IC50 [25]: > 64 nM
IC50 [26]: 7.2 nM
IC50 [27]: 10.7 nM
IC50 [28]: 23 nM
IC50 [29]: 9.69 nM
IC50 [30]: > 64 nM
IC50 [31]: 7.14 nM
IC50 [32]: > 64 nM
IC50 [33]: > 64 nM
IC50 [34]: > 64 nM
IC50 [35]: 4.26 nM
IC50 [36]: > 64 nM
IC50 [37]: 6.95 nM
IC50 [38]: 16.7 nM
IC50 [39]: > 64 nM
IC50 [40]: > 64 nM
IC50 [41]: 0.509 nM
IC50 [42]: 24.6 nM
IC50 [43]: > 64 nM
IC50 [44]: > 64 nM
